The values that follow come from patent publication US20250368628A1, “METHODS AND COMPOUNDS FOR MODULATING INHERITED GENETIC DISEASES” (Design Therapeutics, Inc., priority 2022, published 2025).

In general, EC50 refers to the midpoint of the concentration-response curve.

SMILES strings stand for the structures. Bounds are passed on as bounds.

This test deals with Myotonic Dystrophy 1 affected patient fibroblasts (Coriel GM04602; 1600 CTG repeats). Put plainly: DM1 foci reduction assay (EC50 assay; CAG10-Cy3 FISH, foci per nucleus). Type of test: cell-based. As to conditions: Homo sapiens, Fibroblast; DM1 patient fibroblasts, 48 h treatment, foci per nucleus; read-out: DM1 EC50, 48 h. In a few lines: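 GM04602 DM1 patient fibroblasts (1600 CTG repeats) seeded 24 h, then treated 48 h at 37 °C with an 8-point 1:3 dose series from 3 μM. Cells PFA-fixed, ethanol-permeabilized and hybridized overnight with 5 nM CAG10-Cy3 probe, DAPI counterstained. Imaged at 20×, 4 fields per well, as average foci per nucleus.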
On to `Cn1cc(NC(=O)c2nc(NC(=O)CCNC(=O)c3cc(NC(=O)c4nccn4C)cn3C)cn2C)cc1C(=O)NCCCC(=O)Nc1cn(C)c(C(=O)NCCC(=O)Nc2cc(C(=O)NCCOCCOCCOCCN3CCC(C#CC#CC4CCN(C(=O)OC(C)(C)C)CC4)CC3)n(C)c2)n1` [Compound B-210], for which the EC50 is more than 1000 nM.
Under `CN(C)CCCNC(=O)c1cc(NC(=O)CCNC(=O)c2nc(NC(=O)CCCNC(=O)c3cc(NC(=O)c4nc(NC(=O)CCNC(=O)c5cc(NC(=O)c6nccn6C)cn5C)cn4C)cn3C)cn2C)cn1C` [Compound B-212] stands more than 1000 nM; under `Cn1cc(NC(=O)c2nc(NC(=O)CCNC(=O)c3cc(NC(=O)c4nccn4C)cn3C)cn2C)cc1C(=O)NCCCC(=O)Nc1cn(C)c(C(=O)NCCC(=O)Nc2cc(C(=O)Nc3cn(C)c(C(=O)NCCCCCCCNC(=O)c4cccc(C(=O)O)c4)n3)n(C)c2)n1` [Compound B-213], more than 1000 nM.
Under `Cn1cc(NC(=O)c2nc(NC(=O)CCNC(=O)c3cc(NC(=O)c4nccn4C)cn3C)cn2C)cc1C(=O)NCCCC(=O)Nc1cn(C)c(C(=O)NCCC(=O)Nc2cc(C(=O)Nc3cn(C)c(C(=O)NCCOCCOCCOc4cccc(C(=O)O)c4)n3)n(C)c2)n1` [Compound B-214] stands 500 to 1000 nM; under `CN(CCCCCc1cccc(C(=O)O)c1)CCCNC(=O)c1nc(NC(=O)c2cc(NC(=O)CCNC(=O)c3nc(NC(=O)CCCNC(=O)c4cc(NC(=O)c5nc(NC(=O)CCNC(=O)c6cc(NC(=O)c7nccn7C)cn6C)cn5C)cn4C)cn3C)cn2C)cn1C` [Compound B-215], 100 to 500 nM; under `Cn1cc(NC(=O)c2nc(NC(=O)CCNC(=O)c3cc(NC(=O)c4nccn4C)cn3C)cn2C)cc1C(=O)NCCCC(=O)Nc1cn(C)c(C(=O)NCCC(=O)Nc2cc(C(=O)Nc3cn(C)c(C(=O)NCCOCCOCCOc4cncc(C(=O)O)c4)n3)n(C)c2)n1` [Compound B-216], more than 1000 nM.
Under `Cn1cc(NC(=O)c2nc(NC(=O)CCNC(=O)c3cc(NC(=O)c4nccn4C)cn3C)cn2C)cc1C(=O)NCCCC(=O)Nc1cn(C)c(C(=O)NCCC(=O)Nc2cc(C(=O)Nc3cn(C)c(C(=O)NCCCCNc4cccc(C(=O)O)c4)n3)n(C)c2)n1` [Compound B-218] stands 100 to 500 nM; under `CCN(CC)CCCC[C@H](NC(=O)c1ccccc1)C(=O)NCCOCCOCCOCCOCCOCCNC(=O)c1nc(NC(=O)c2cc(NC(=O)CCNC(=O)c3nc(NC(=O)CCCNC(=O)c4cc(NC(=O)c5nc(NC(=O)CCNC(=O)c6cc(NC(=O)c7nccn7C)cn6C)cn5C)cn4C)cn3C)cn2C)cn1C` [Compound B-219], 500 to 1000 nM.
Turning to `CCN(CC)CCCC[C@H](NC(=O)c1cccc(C(=O)O)c1)C(=O)NCCOCCOCCOCCOCCOCCNC(=O)c1nc(NC(=O)c2cc(NC(=O)CCNC(=O)c3nc(NC(=O)CCCNC(=O)c4cc(NC(=O)c5nc(NC(=O)CCNC(=O)c6cc(NC(=O)c7nccn7C)cn6C)cn5C)cn4C)cn3C)cn2C)cn1C` [Compound B-220], the EC50 was more than 1000 nM.
Under `CCN(CC)CCCC[C@H](NC(=O)c1cccc(C(=O)O)c1)C(=O)NCCOCCOCCOCCNC(=O)c1nc(NC(=O)c2cc(NC(=O)CCNC(=O)c3nc(NC(=O)CCCNC(=O)c4cc(NC(=O)c5nc(NC(=O)CCNC(=O)c6cc(NC(=O)c7nccn7C)cn6C)cn5C)cn4C)cn3C)cn2C)cn1C` [Compound B-221] stands more than 1000 nM; under `CCN(CC)CCCC[C@H](NC(=O)c1cccc(C(=O)O)c1)C(=O)NCCOCCOCCOCCOCCOCCNC(=O)CCNC(=O)c1nc(NC(=O)c2cc(NC(=O)CCNC(=O)c3nc(NC(=O)CCCNC(=O)c4cc(NC(=O)c5nc(NC(=O)CCNC(=O)c6cc(NC(=O)c7nccn7C)cn6C)cn5C)cn4C)cn3C)cn2C)cn1C` [Compound B-222], 500 to 1000 nM; under `CCN(CC)CCCC[C@H](NC(=O)c1cccc(C(=O)O)c1)C(=O)NCCOCCOCCOCCNC(=O)CCNC(=O)c1nc(NC(=O)c2cc(NC(=O)CCNC(=O)c3nc(NC(=O)CCCNC(=O)c4cc(NC(=O)c5nc(NC(=O)CCNC(=O)c6cc(NC(=O)c7nccn7C)cn6C)cn5C)cn4C)cn3C)cn2C)cn1C` [Compound B-223], more than 1000 nM.
The result for `Cn1cc(NC(=O)c2nc(NC(=O)CCNC(=O)c3cc(NC(=O)c4nccn4C)cn3C)cn2C)cc1C(=O)NCCCC(=O)Nc1cn(C)c(C(=O)NCCC(=O)Nc2cc(C(=O)Nc3cn(C)c(C(=O)NCCC(=O)N4CCC(C#CC#CC5CCN(CCCNC(=O)c6cccc(C(=O)O)c6)CC5)CC4)n3)n(C)c2)n1` [Compound B-225] reads 100 to 500 nM; that for `CCCNC(=O)c1nc(NC(=O)c2cc(NC(=O)CCNC(=O)c3nc(NC(=O)CCCNC(=O)c4cc(NC(=O)c5nc(NC(=O)CCNC(=O)c6cc(NC(=O)c7nccn7C)cn6C)cn5C)cn4CCCCCCN=[N+]=[N-])cn3C)cn2C)cn1C` [Compound B-231], 100 to 500 nM.
The result for `CCCNC(=O)CCNC(=O)c1nc(NC(=O)c2cc(NC(=O)CCNC(=O)c3nc(NC(=O)CCCNC(=O)c4cc(NC(=O)c5nc(NC(=O)CCNC(=O)c6cc(NC(=O)c7nccn7C)cn6C)cn5C)cn4CCCCCCNC(=O)CCOCCOCCOCCOCCOCCOC)cn3C)cn2C)cn1C` [Compound B-238] reads 100 to 500 nM; that for `COCCOCCOCCOCCN(CCOCCOCCOCCOC)C(=O)CCCCn1cc(NC(=O)c2nc(NC(=O)CCNC(=O)c3cc(NC(=O)c4nccn4C)cn3C)cn2C)cc1C(=O)NCCCC(=O)Nc1cn(C)c(C(=O)NCCC(=O)Nc2cc(C(=O)Nc3cn(C)c(C(=O)NCCC(=O)N4CCC(N5CCN(C(=O)OC(C)(C)C)CC5)CC4)n3)n(C)c2)n1` [Compound B-242], more than 1000 nM.
Turning to `Cn1cnc(NC(=O)c2cc(NC(=O)CCNC(=O)c3nc(NC(=O)CCCNC(=O)c4cc(NC(=O)c5nc(NC(=O)CCNC(=O)c6cc(NC(=O)c7nccn7C)cn6C)cn5C)cn4C)cn3C)cn2C)c1` [Compound B-243], the EC50 was more than 1000 nM.
Under `Cn1cc(NC(=O)c2nc(NC(=O)CCNC(=O)c3cc(NC(=O)c4nccn4C)cn3C)cn2C)cc1C(=O)NCCCC(=O)Nc1cn(C)c(C(=O)NCCC(=O)Nc2cc(C(=O)Nc3cn(C)c(C(=O)NCCCN4CCC(C#CC#CC5CCNCC5)CC4)n3)n(C)c2)n1` [Compound B-250] stands 100 to 500 nM; under `Cn1cnc(NC(=O)c2cc(NC(=O)CCNC(=O)c3nc(NC(=O)CCCNC(=O)c4cc(NC(=O)c5nc(NC(=O)CCNC(=O)c6cc(NC(=O)c7nccn7C)cn6C)cn5C)cn4CCCCCCN=[N+]=[N-])cn3C)cn2C)c1` [Compound B-252], more than 1000 nM; under `CN(C)CCCNC(=O)c1cc(NC(=O)CCNC(=O)c2nc(NC(=O)CCCNC(=O)c3cc(NC(=O)c4nc(NC(=O)CCNC(=O)c5cc(NC(=O)c6nccn6C)cn5C)cn4C)cn3CCCCCCN=[N+]=[N-])cn2C)cn1C` [Compound B-254], more than 1000 nM.
Regarding `COCCOCCOCCOCCN(CCOCCOCCOCCOC)C(=O)CCCCn1cc(NC(=O)c2nc(NC(=O)CCNC(=O)c3cc(NC(=O)c4nccn4C)cn3C)cn2C)cc1C(=O)NCCCC(=O)Nc1cn(C)c(C(=O)NCCC(=O)Nc2cc(C(=O)Nc3cn(C)c(C(=O)NCCC(=O)N4CCC(C#CC#CC5CCN(C(C)=O)CC5)CC4)n3)n(C)c2)n1` [Compound B-259], the EC50 was more than 1000 nM.
Under `CCCCCNC(=O)CCNC(=O)c1nc(NC(=O)c2cc(NC(=O)CCNC(=O)c3nc(NC(=O)CCCNC(=O)c4cc(NC(=O)c5nc(NC(=O)CCNC(=O)c6cc(NC(=O)c7nccn7C)cn6C)cn5C)cn4CCCCC(=O)N(CCOCCOCCOCCOC)CCOCCOCCOCCOC)cn3C)cn2C)cn1C` [Compound B-261] stands 100 to 500 nM.
As to `Cn1cc(NC(=O)c2nc(NC(=O)CCNC(=O)c3cc(NC(=O)c4nccn4C)cn3C)cn2C)cc1C(=O)NCCCC(=O)Nc1cn(C)c(C(=O)NCCC(=O)Nc2cc(C(=O)Nc3cn(C)c(C(=O)NCCC(=O)N4CCC(CC5CC[N+](C)(C)CC5)CC4)n3)n(C)c2)n1` [Compound B-262], the EC50 is more than 1000 nM.
As to `CCCNC(=O)CCNC(=O)c1nc(NC(=O)c2cc(NC(=O)CCNC(=O)c3nc(NC(=O)CCCNC(=O)c4cc(NC(=O)c5nc(NC(=O)CCNC(=O)c6cc(NC(=O)c7nccn7C)cn6C)cn5C)cn4CCCCCCNC(C)=O)cn3C)cn2C)cn1C` [Compound B-292], the EC50 is less than 100 nM.
The result for `CC(=O)NCCCCCCn1cc(NC(=O)c2nc(NC(=O)CCNC(=O)c3cc(NC(=O)c4nccn4C)cn3C)cn2C)cc1C(=O)NCCCC(=O)Nc1cn(C)c(C(=O)NCCC(=O)Nc2cc(C(=O)Nc3cn(C)c(C(=O)NCCC(=O)N4CCC(C#CC#CC5CCNCC5)CC4)n3)n(C)c2)n1` [Compound B-294] reads less than 100 nM.
For `CN(C)C(=O)c1nc(NC(=O)c2cc(NC(=O)CCNC(=O)c3nc(NC(=O)CCCNC(=O)c4cc(NC(=O)c5nc(NC(=O)CCNC(=O)c6cc(NC(=O)c7nccn7C)cn6C)cn5C)cn4C)cn3C)cn2C)cn1C` [Compound B-314], the 50% effective concentration (EC50) was more than 1000 nM.
Turning to `CCCNC(=O)CCNC(=O)c1nc(NC(=O)c2cc(NC(=O)CCNC(=O)c3nc(NC(=O)CCCCNC(=O)c4cc(NC(=O)c5nc(NC(=O)CCNC(=O)c6cc(NC(=O)c7nccn7C)cn6C)cn5C)cn4C)cn3C)cn2C)cn1C` [Compound B-317], the EC50 is more than 1000 nM.
The result for `Cn1cc(NC(=O)c2nc(NC(=O)CCNC(=O)c3cc(NC(=O)c4nccn4C)cn3C)cn2C)cc1C(=O)NCCCC(=O)Nc1cn(C)c(C(=O)NCCC(=O)Nc2cc(C(=O)Nc3cn(C)c(C(=O)NCCC(=O)NCCCCCN4CCC(C#CC#CC5CCNCC5)CC4)n3)n(C)c2)n1` [Compound B-336] reads more than 1000 nM; that for `Cn1cc(NC(=O)c2nc(NC(=O)CCNC(=O)c3cc(NC(=O)c4nccn4C)cn3C)cn2C)cc1C(=O)NCCCC(=O)Nc1cn(C)c(C(=O)NCCC(=O)Nc2cc(C(=O)Nc3cn(C)c(C(=O)NCCCCCCCNC(=O)c4cccc(C(=O)OC(C)(C)C)c4)n3)n(C)c2)n1` [Compound B-338], more than 1000 nM.
Under `COC(=O)c1cccc(OCCOCCOCCNC(=O)c2nc(NC(=O)c3cc(NC(=O)CCNC(=O)c4nc(NC(=O)CCCNC(=O)c5cc(NC(=O)c6nc(NC(=O)CCNC(=O)c7cc(NC(=O)c8nccn8C)cn7C)cn6C)cn5C)cn4C)cn3C)cn2C)c1` [Compound B-339] stands 500 to 1000 nM.
